Measured values published in US20040039211A1, “Tetrapyrroles” (DUKE UNIVERSITY AND NATIONAL JEWISH MEDICAL AND RESEARCH …, priority 2000, published 2004).

Legend:
[1] = Cyclic voltammetry, metal-centered redox potential; type: physicochemical; conditions: 90/10 (v/v) methanol/aqueous solution, pH* 7.9
Procedure: Manganese(III) Salen. The compound was prepared by the published procedure (Boucher, J. lnorg. Nucl. Chem. 36:531 (1974)). The uv/vis in water: ε235=3.70×10^4 cm^−1 M^−1, ε279=1.70×10^4 cm^−1 M^−1, ε397=4.60×10^3 cm^−M^−1. The elemental analysis: Anal. Calcd for Mn^IIIsalenCl, C16H14N2O2MnCl: C, 53.88; H, 3.96; N; 7.85. Found: C, 54.02; H, 4.06; N, 7.85. […] Based on the E1/2 of Mn^IIITM-2-PyP^5+, ferrocenemethanol and of K3Fe(CN)6 in water and methanol, the redox potential of Mn^III salen^+ in water was calculated to be E1/2=−0.13 V vs NHE.
Electrochemistry of the Manganese(III) Biliverdin Dimethylester. Measurements were made using a CH Instruments model 600 voltammetric analyzer as described previously(Batinic-Haberle et al, Inorg. Chem. 38:4011 (1999)). A three-electrode system in a small volume (0.5-3.0 mL), with a 3 mm diameter glassy carbon button working electrode (Bioanalytical Systems), Ag/AgCl reference electrode (3 M NaCl, Bioanalytical Systems), and a Pt wire (0.5 mm) as auxiliary electrode, were used. The cyclic votammetry was performed on 0.5 mM (per manganese) methanol/aqueous (90/10, v/v) solutions of the compounds investigated. The ionic strength was kept at 0.10 M (NaCl), and 0.05 M tris buffer was used for pH^* adjustment. For calibration purposes, compounds of different hydrophilicities, […], (Kolthof et al, J. Phys. Chem. 39:945 (1935)) ferrocenemethanol and Mn^IIITM-2-PyP^5+ were studied in both aqueous and methanol/aqueous (90/10, v/v) solutions (I=0.10 M NaCl, 0.05 M tris buffer, pH^* 7.9). In all cases the measured E1/2 was 170 mV more positive in methanolic than in aqueous solution and this value was used to predict the redox potential in aqueous solution from measurement in methanol/aqueous solution.

rat brain homogenates = assay: Lipid peroxidation of rat brain homogenates by iron/ascorbate (TBARS); type: biochemical; conditions: concentration that reduced lipid peroxidation by one-half
Procedure: The ability of mimetics to inhibit lipid peroxidation can be assessed as described by Day et al, Free Rad. Biol. Med. 26:730 (1990). Iron and ascorbate can be used to initiate lipid peroxidation in tissue homogenates and the formation of thiobarbituric acid reactive species (T BARS) measured.
Two metallotetrapyrroles were tested for antioxidant activity, in vitro. In particular, the compounds were assayed for their ability to dismutate superoxide in the indirect method that utilizes xanthine and xanthine oxidase to generate superoxide and cytochrome c reduction as indicator of superoxide flux. […] The compounds were also assayed for their ability to prevent lipid peroxidation of rat brain homogenates by iron and ascorbate. The mixture of iron and ascorbate generates reactive oxygen species that oxidize biological lipids and these oxidized lipids can be detected as species that react with thiobarbituric acid (TBARS). Both compounds could inhibit the formation of TBARS and this ability correlated with their superoxide dismutase (SOD) activity (Table 5).
b) Lipid peroxidation was initiated in rat brain homogenates with iron/ascorbate and the IC50 is the concentration of compound that reduced lipid peroxidation by one-half.

Manganese(III) Biliverdin IX Dimethylester [{Mn^IIIBVDME}2]
E1/2, V vs Ag/AgCl ([1]; Mn(III)/Mn(II) couple): −0.32 V vs Ag/AgCl | E1/2, V vs Ag/AgCl ([1]; Mn(III)/Mn(IV) couple): +0.36 V vs Ag/AgCl | E1/2, V vs Ag/AgCl ([1]; Mn(III)/Mn(IV) couple, listed as ½ {Mn^III/IVBVDME^0/−}2): −0.36 V vs Ag/AgCl | IC50 (rat brain homogenates): 300 nM
